In one test the test system is ACHN cells. Nature of the test: Nude mouse xenograft model, ACHN (s.c.). The class given is in vivo, nude mice. The note with it: i.p. 200 mpk/day. The text has this:
Anti-tumor activity in nude mouse xenograft model—Female athymic nude (nu/nu) mice, 5-6 weeks old, were purchased from Charles River (Wilmington, Mass.) and allowed to acclimate in the animal facility for one week. After harvesting, A-549, SNB-19, ACHN, and HCT-116 cells were, resuspended in sterile PBS, and injected s.c. into the right and left flanks (10×10^6 cells per flank) of the mice as previously described (Sun et al., 2005). For MDA-MB-231, cells were harvested and resuspended in PBS (10×10^6 cells per 50 μl) and an equal volume of Matrigel (BD Biosciences, San Jose, Calif.). 100 μl of MDA-MB-231 cells in PBS/Matrigel were injected s.c. into the mammary fat pads between the 2nd and 3rd nipples on each side of the mice. Once the tumors reached approximately 200-300 mm^3 the mice were randomized and treated i.p. with 0.1 ml vehicle (PBS) or ARA-211. Each treatment group consisted of five mice (2 tumors per mouse, a total of 10 tumors). The tumor volumes were determined by measuring the length (l) and width (w) and calculating the volume (V=w^2l/2). Statistical significance between the control and treated animals was determined using a student's t test.

The next test has as its system MDA-MB-231 cells. Description: Alamar Blue proliferation assay, MDA-MB-231. Conditions: MDA-MB-231 with CA-Mek; 10 μM, 48 hours. In kind it is cell-based, human. How it is done:
Cell Lines and Transfections—All cell lines used were obtained from American Type Tissue Collection (ATCC), (Manassas, Va.), or from the DCTD Tumor Repository, (Frederick, Md.). Propagation was carried out according to ATCC protocols. Propagation media was obtained from Invitrogen Corporation (Carlsbad, Calif.). DNA transfections were carried out using TransIT-LT1 transfection reagent (Takara Mirus, Madison, Wis.) according to the manufacturer's protocol. Briefly, 4×10^5 MDA-MB-231 cells were grown to approximately 70% confluency in medium supplemented with 10% FBS (Atlanta Biologicals, Atlanta, Ga.) in the absence of antibiotics. For transfection, LT1 was pre-incubated in 200 μl per transfection in Opti-MEM (Invitrogen) for 20 minutes prior to addition of plasmid. […]
Alamar Blue proliferation assay—For proliferation assays using exogenous constitutively activated MEK or the B2AR antagonist ICI-118.551, Alamar Blue metabolism assay used to determine cell viability according to the manufacturers protocol (Biosource, Camarillo, Calif.). […] Media/Alamar Blue was removed from the cells and aliquoted into 96 well plates (100 μl per well) and fluorescence read on a Wallac Victor 2 plate reader at excitation 540 nm, and emission 615 nm.
A general note: Alamar Blue is a resazurin reagent that responds to reducing activity.

In a further test the test system is SF-539 cells. Nature of the test: Anchorage-independent growth (soft agar assay), SF-539. The class given is cell-based, human. As to the method: Soft Agar Assay—Anchorage independent growth assays were performed as previously described (Lerner et al., 1997). Briefly, agar was diluted to 0.3% in propagation media containing 20,000 cells and either vehicle or ARA-211 and 1 ml of cell/agar mixture plated on top of 2 ml of a 0.6% layer of agar in medium alone. Cells were grown for three to four weeks at 37° C., 10% Co2 and were fed weekly with 100 μl per well of media/treatment. Quantification of colonies was done using a GS-700 scanning densitometer.

For another test, the system named is total Erk 1/2. Nature of the test: Total Erk 1/2 levels, MDA-MB-231. Conditions: at 10 nM. The class given is cell-based, human. How it is done: Western Blotting—Treated cell samples were lysed in 30 mM HEPES, 10 mM NaCl, 5 mM MgCl2, 25 mM NaF, 1 mM EGTA, 1% Triton-X-100, 10% Glycerol, 2 mM Sodium orthovanidate, 10 μg/mL aprotinin, 10 μg/mL soybean trypsin inhibitor, 25 μg/mL leupeptin, 2 mM phenylmethylsulfonylfluoride (PMSF), 6.4 mg/mL p-nitrophenylphosphate for 30 minutes at 4° C., and proteins run on SDS-PAGE gels then transferred to nitrocellulose membranes. Membranes were blocked in either 5% milk in PBS, pH 7.4, containing 0.1% Tween-20 (PBS-T) or 1% BSA in TBS, pH 7.5, containing 0.1% Tween-20 (TBS-T). Phospho-STAT3 and phospho-AKT antibodies were diluted in 1% BSA in TBS-T while phospho-c-Raf, phospho-Mek, and phospho-p44/p42 MAPK antibodies (Cell Signaling) were diluted in 5% milk in PBS-T for either 1 hour at room temperature or overnight at 4° C. HRP-conjugated secondary antibodies (Jackson ImmunoResearch, West Grove, Pa.) were diluted in 5% milk in PBS-T or TBS-T at a 1:1000 dilution for one hour at room temperature. Western blots results were visualized using enhanced chemiluminescence. Stripping of the membranes for reblotting was done using stripping buffer (62.5 mM Tris pH 7.6, 2% SDS, 0.7% 2-mercaptoethanol) at 50° C. for 30 minutes.

Where a name gives a salt, the structure may show the parent alone.

`CC(C)(C)NCC(O)c1ccc(O)c(CO)n1` (stereo not shown) [ARA-211, 2-hydroxymethyl-3-hydroxy-6-(1-hydroxy-2-tert-butylaminoethyl) pyridine, dihydrochloride]: the growth of tumors result in the test with ACHN cells is “suppressed tumor growth”. For the same compound, the “inhibition of tumor growth in cells ectopically expressing constitutively activated Mek-1” value in the test on MDA-MB-231 cells is listed as “resistant”. Further, the “Anchorage Independent Growth (% Inhibition)” value in the test with SF-539 cells worked out at 94.4 ± 1.5%. Moreover, the “levels of total Erk 1/2” value in the test on total Erk 1/2 is recorded as “without affecting”.

The values are drawn from patent US7713960B2, “Inhibition of the Raf/Mek/P-Erk pathway for treating cancer” (University of South Florida, priority 2005, dated 2010).
